According to ChEMBL document CHEMBL1201862, “PubChem BioAssay data set” (2004):
Active and inactive are the calls of the source.

Experiments:
[1] = cells; assay type: functional, cell-based
[2] = cells; assay type: functional, cell-based; remark: listed apart in the source
[3] = HepG2 cell cytotoxicity, dose response, cytotoxicity control, ATP luminescence, cherry-pick, activator set 2 (AID 1053143); assay type: functional, cell-based
[4] = target: T1, Tyrosine-protein phosphatase non-receptor type 7 (Homo sapiens, UniProt P35236); assay: inhibitors of human HePTP phosphatase, […], biochemical, absorbance, leukemia target (AID 521); assay type: functional
T1 sequence (P35236 whole entry): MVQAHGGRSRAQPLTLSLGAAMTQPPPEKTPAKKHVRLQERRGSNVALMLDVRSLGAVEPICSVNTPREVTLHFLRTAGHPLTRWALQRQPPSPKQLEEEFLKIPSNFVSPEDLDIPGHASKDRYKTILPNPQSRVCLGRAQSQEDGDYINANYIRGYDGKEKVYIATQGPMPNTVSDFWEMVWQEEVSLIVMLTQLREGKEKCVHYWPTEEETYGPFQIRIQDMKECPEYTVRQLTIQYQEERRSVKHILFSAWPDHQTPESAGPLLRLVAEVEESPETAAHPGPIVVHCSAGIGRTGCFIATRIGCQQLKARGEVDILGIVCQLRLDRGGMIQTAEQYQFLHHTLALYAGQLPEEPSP

[5] = inhibitors of intracellular T. cruzi replication, confirmation, NIH3T3 host cells, beta-gal luminescence (AID 2044); assay type: functional, cell-based;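 note: intracellular parasites grown in NIH/3T3 mouse fibroblasts as host cells; luminescent beta-galactosidase reporter signal from transgenic T. cruzi replicating inside host cells; inhibitors lower the luminescence signal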
[6] = cells
[7] = cytotoxicity toward NIH3T3 fibroblasts, dose response, counter-screen, cell-based, ATP luminescence, mouse fibroblasts (AID 2010); assay type: functional;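 note: cells exposed to compound for about 90 hours before reading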
[8] = ZM109 Env clade C HIV-1 fusion inhibitors, dose response, HeLa effector, CEM target cells, luciferase, cherry-pick (AID 652058); assay type: functional, cell-based
[9] = inhibitors of clade B AD8 Env fusion, dose response, cell-based, cherry-pick (AID 652062); assay type: functional;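 note: luciferase signal from cell-cell fusion driven by HIV-1 clade B AD8 Env; potency is for inhibitors of fusion seen as a drop in luminescence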
[10] = target: T2, Dual specificity protein phosphatase 6 (Rattus norvegicus, UniProt Q64346); assay: MKP-3 phosphatase inhibitors, primary screen, biochemical, rat enzyme, in vitro (AID 425)
T2 sequence (Q64346 whole entry): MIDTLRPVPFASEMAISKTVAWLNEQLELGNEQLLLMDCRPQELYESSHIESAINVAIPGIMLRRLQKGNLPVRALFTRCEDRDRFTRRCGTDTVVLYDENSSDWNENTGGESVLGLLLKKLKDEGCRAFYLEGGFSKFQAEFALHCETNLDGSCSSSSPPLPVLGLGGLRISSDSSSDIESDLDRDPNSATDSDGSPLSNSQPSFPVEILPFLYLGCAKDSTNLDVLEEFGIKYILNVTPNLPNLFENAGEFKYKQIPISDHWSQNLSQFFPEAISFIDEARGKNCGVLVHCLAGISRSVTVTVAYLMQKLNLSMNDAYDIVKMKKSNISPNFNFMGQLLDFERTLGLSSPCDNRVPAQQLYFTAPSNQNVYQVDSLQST

[11] = target: Eukaryotic translation initiation factor 4E (Mus musculus, UniProt P63073); assay: eIF4E–eIF4G protein interaction inhibitors, dose response, biochemical, TR-FRET (AID 855); assay type: functional;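 note: potency for disrupting eIF4E binding to eIF4GI seen as loss of FRET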
Sequence of Eukaryotic translation initiation factor 4E (P63073 whole entry): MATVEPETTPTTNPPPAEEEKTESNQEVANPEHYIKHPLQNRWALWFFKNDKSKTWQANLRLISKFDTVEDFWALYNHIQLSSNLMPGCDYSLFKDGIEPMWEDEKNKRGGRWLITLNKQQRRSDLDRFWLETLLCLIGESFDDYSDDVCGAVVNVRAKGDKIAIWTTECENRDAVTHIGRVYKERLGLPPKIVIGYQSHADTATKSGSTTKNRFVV

[12] = target: Protein Tat (Human immunodeficiency virus type 1 group M subtype B (isolate HXB2)(HIV-1), UniProt P04608); assay type: functional;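 note: tat binding to TAR RNA read out by fluorescence polarization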
Sequence of Protein Tat (P04608 whole entry): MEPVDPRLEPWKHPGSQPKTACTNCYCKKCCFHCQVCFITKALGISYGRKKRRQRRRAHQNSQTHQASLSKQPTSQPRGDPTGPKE

[13] = target: Induced myeloid leukemia cell differentiation protein Mcl-1 (Homo sapiens, UniProt Q07820); assay type: functional
Sequence of Induced myeloid leukemia cell differentiation protein Mcl-1 (Q07820 whole entry): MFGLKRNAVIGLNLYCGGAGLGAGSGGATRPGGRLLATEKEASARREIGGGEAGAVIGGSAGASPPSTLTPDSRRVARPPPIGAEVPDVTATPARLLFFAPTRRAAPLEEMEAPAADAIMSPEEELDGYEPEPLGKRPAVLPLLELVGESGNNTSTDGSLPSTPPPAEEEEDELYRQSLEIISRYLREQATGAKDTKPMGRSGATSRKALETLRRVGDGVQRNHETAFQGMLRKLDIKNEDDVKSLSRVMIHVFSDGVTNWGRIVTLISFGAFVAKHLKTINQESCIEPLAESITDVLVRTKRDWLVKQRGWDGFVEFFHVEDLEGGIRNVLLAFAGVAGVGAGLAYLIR

[14] = Vero cell cytotoxicity, dose response, cytotoxicity control for Vif-APOBEC3G degradation inhibitor project, Vero cells (AID 1117358); assay type: functional; conditions: Human immunodeficiency virus 1, Vero
[15] = Luminescence-based cell-based high throughput dose response assay to identify activators of the DAF-12 from the parasite S. stercoralis (ssDAF-12).; assay type: functional
[16] = target: T3, Oxysterols receptor LXR-beta (Homo sapiens, UniProt P55055); assay: LXR agonists, Gal4 luciferase reporter, dose response, counter-screen for ssDAF-12 agonist project, cell-based, luminescence, HEK293, S. stercoralis campaign (AID 720737); assay type: functional; conditions: read-out: IC50 (the source's name)
T3 sequence (P55055 whole entry): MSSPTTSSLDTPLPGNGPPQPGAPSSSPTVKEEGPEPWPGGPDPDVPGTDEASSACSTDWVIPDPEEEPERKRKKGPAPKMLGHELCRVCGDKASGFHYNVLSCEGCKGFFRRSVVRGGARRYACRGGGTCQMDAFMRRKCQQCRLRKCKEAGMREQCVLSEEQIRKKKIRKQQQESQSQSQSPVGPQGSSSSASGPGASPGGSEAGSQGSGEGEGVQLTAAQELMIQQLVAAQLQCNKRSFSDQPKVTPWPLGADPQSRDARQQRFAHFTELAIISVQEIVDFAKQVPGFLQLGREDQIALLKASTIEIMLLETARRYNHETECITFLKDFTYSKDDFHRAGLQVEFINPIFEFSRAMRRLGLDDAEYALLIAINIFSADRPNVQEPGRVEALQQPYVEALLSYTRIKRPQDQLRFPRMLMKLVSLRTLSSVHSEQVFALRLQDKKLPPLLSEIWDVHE

[17] = Luminescence Cell-Based Dose Response to Identify Activators of 5'UTR Stem-Loop Driven Prion Protein mRNA Translation in H4-C Neuroglioblastoma Cells. [Related pubchem assays: 1829 (Project Summary), 1814 (Primary HTS)]; assay type: functional
[18] = Luminescence Cell-Based Dose Response HTS to Identify Activators of Luciferase Translation or Activity in H4 […] Cells. [Related pubchem assays: 1829 (Project Summary), 1814 (Primary HTS)]; assay type: functional
[19] = Luminescence Cell-Based Dose Response to Identify Activators of Luciferase Translation or Activity in H4-C Neuroglioblastoma Cells. [Related pubchem assays: 1829 (Project Summary), 1814 (Primary HTS)]; assay type: functional
[20] = Luminescence Cell-Based Dose Confirmation to Identify Activators of 5'UTR Stem-Loop Driven Alpha-Synuclein mRNA Translation in H4 Neuroglioblastoma Cells. [Related pubchem assays: 1829 (Project Summary), 1814 (Primary HTS)]; assay type: functional
[21] = off-target signal loss in HeLa-CEM21 co-culture – HeLa F-luc CTL cells, cherry-picked, counter-screen for HIV-1 Env fusion inhibitor project, dose response (AID 652040); assay type: functional, cell-based;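 note: potency for signal decrease marking cytotoxic or nonspecific inhibition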
[22] = HepG2 cell cytotoxicity, dose response, cytotoxicity control for Shn3 inhibitor project, CellTiter-Glo, cherry-picked (AID 624134); assay type: functional, cell-based
[23] = target: Protein Wnt-3a (Mus musculus, UniProt P27467); assay: Wnt3a-driven reporter signaling inhibition, dose response, selectivity assay for Gli-SUFU antagonist project, Wnt-LIGHT cells, luminescence (AID 651570); assay type: functional; conditions: read-out: IC50_Mean;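 note: Wnt-LIGHT reporter cells stimulated with conditioned medium from Wnt3a-producing cells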
Sequence of Protein Wnt-3a (P27467 whole entry, the tested form may be a part): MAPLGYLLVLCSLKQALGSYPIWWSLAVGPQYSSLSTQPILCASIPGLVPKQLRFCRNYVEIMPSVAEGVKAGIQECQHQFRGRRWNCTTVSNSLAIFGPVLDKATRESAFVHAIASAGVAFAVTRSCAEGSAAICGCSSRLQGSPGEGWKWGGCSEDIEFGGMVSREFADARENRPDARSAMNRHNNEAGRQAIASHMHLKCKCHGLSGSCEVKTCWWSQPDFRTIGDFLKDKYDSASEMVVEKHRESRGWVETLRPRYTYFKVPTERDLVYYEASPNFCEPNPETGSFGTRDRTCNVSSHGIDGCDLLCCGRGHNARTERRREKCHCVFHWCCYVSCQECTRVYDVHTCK

[24] = inhibitors of HIV Env-driven cell fusion, dose response, cherry-pick (AID 652057); assay type: functional, cell-based
[25] = Shn3 3'UTR reporter inhibitors, dose response, cell-based, Clone20 osteoblasts, firefly luciferase, cherry-picked (AID 624132); assay type: functional;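 note: firefly luciferase luminescence from reporter carrying the Shn3 3'UTR in osteoblasts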
[26] = CEM21 cell cytotoxicity, dose response, cytotoxicity control, plate reader, dry powder (AID 687026); assay type: functional, cell-based
[27] = system: INS1; assay: beta cell apoptosis inhibitors, cytokine rescue, dose response, luminescence, retest (AID 449756); assay type: functional, cell-based; conditions: Rattus norvegicus;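 note: cell death triggered by IL-1 beta plus TNF-alpha plus IFN-gamma mixture; protective hits raise ATP signal compared with cytokine alone wells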
[28] = control 3'UTR Renilla luciferase suppression, dose response, counter-screen for Shn3 inhibitor project, cell-based, Clone20-Shn3RL, cherry-picked (AID 624133); assay type: functional

## COCCNC(=O)c1cc(-c2cccs2)on1
[1]
  EC50: > 350 µM (not active)
[2]
  EC50: 70.8 µM (active)
[3]
  AC50: 26 µM (active)

## Clc1ccccc1Cn1nnc2c(NCCN3CCOCC3)ncnc21
[4]
  IC50: > 100 µM (not active)

## O=C(NCC(c1cccnc1)N1CCN(c2ccccc2F)CC1)OCc1ccccc1 (stereo not drawn)
[5]
  EC50: < 0.1 µM (active)
[6]
  EC50: 0.071 µM (active)
[7]
  EC50: > 60 µM (not active)

## COc1ccccc1Oc1ccc(S(=O)(=O)NCc2ccccn2)cc1
[8]
  AC50: 25.1 µM (active)
[4]
  IC50: > 100 µM (not active)
[9]
  AC50: 14.8 µM (active)

## CCOC(=O)C1CCN(C(=O)Nc2ccc3nc(-c4ccco4)c(-c4ccco4)nc3c2)CC1
[10]
  IC50: > 10 µM (not active)
[11]
  IC50: 21.2 µM (inactive)
[12]
  IC50: 2.01 µM (inconclusive)
[13]
  IC50: 1.46 µM (active)

## CCOc1c(OC)cccc1C1CC(=O)Nc2cc3c(cc21)OCCO3 (stereo not drawn)
[14]
  CC50: > 40 µM (active)

## Cc1nn(CC(=O)OC(C)C(=O)Nc2ccccc2[N+](=O)[O-])c(C)c1[N+](=O)[O-] (stereo not drawn)
[15]
  IC50: > 67.5 µM (inactive)
[16]
  EC50: > 67.5 µM (inactive)

## CCOC(=O)c1c(C)[nH]c(N=Nc2ccc(C)cc2)c1C
[17]
  EC50: 0.305 µM (active)
[18]
  EC50: < 0.1 µM (active)
[19]
  EC50: 0.3 µM (active)
[20]
  EC50: 0.387 µM (active)

## COc1ccc(CC(=O)Nc2cccc(S(=O)(=O)N3CCCCCC3)c2)cc1OC
[21]
  AC50: > 70 µM (inactive)
[22]
  AC50: 2.12 µM (active)
[23]
  IC50: 1.73 µM (active)
[24]
  AC50: 7.05 µM (active)
[25]
  AC50: 2.27 µM (active)
[9]
  AC50: 3.47 µM (active)
[26]
  AC50: > 70 µM (inactive)
[27]
  AC50: 6.12 µM (active)
[28]
  AC50: 30 µM (active)

## O=C(C1CCCN(Cc2ccc(Cl)cc2)C1)N1CCCCC1 (stereo not drawn)
[5]
  EC50: < 0.1 µM (active)
[6]
  EC50: 0.055 µM (active)
[7]
  EC50: > 30 µM (not active)
